“Also recorded” adds a separate entry of the source.
B1: Spexin (peptide, UniProt Q9BT56 27-116, looked up)
Spexin: APQRLLERRNWTPQAMLYLKGAQGRRFISDQSRRKDLSDRPLPERRSPNPQLLTIPEAATILLASLQKSPEDEEKNFDQTRFLEDSLLNW
modifications: Spexin
notes: endogenous peptide ligand of Galr2 and Galr3; synthesized by AnyGen

Tests used:
Galr2 [1] = conditions: cited from earlier work
Description: (§1) G-protein-coupled receptors (GPCRs) are the largest family of cell surface receptors that communicate extracellular stimuli to the cell interior[1]. Biased ligands are of particular interest because they offer the possibility to design a novel class of therapeutic agents. In some GPCRs, biased ligands that preferentially activate G-protein-dependent signaling have therapeutic potential. […] Most descriptions of biased ag ...

[2] = tested on: galanin receptor 3 (Galr3); conditions: cited from earlier work
Description: as §1

Galr2 [3] = test: Total inositol phosphate production; assay type: cell-based, human; conditions: for Log(τ/KA), Total inositol phosphate: HEK293 cells, human Galr2, 40 min at 37 °C, operational model (Eq. 2)
Description: Galr2 is primarily coupled to the Gαq-protein which activates the phospholipase C/protein kinase C pathway for inositol phosphate production. We measured G-protein activation in HEK293 cells transiently expressing Galr2, using the serum response element-luciferase (SRE-Luc) gene reporter assay[10],[37] and for a more specific monitoring of Gαq-protein activity we also measured total inositol phosphate production. […] However, some differences were observed between SRE-Luc activity and total inositol phosphate production in the rank order of potency of the tested ligands. […] Phosphorylation of extracellular signal-regulated protein kinases 1 and 2 (pErk1/2) is either G-protein or β-arrestin dependent. To distinguish Gαq-protein- and β-arrestin1/2-dependent Erk1/2 signaling, we examined ligand-stimulated Erk1/2 phosphorylation in three different HEK293 cell lines, wild type, Gαq/11-knockout, and β-arrestin1/2-knockout cells. All three ligands induced high levels of Erk1/2 phosphorylation dose-dependently in wild-type HEK293 cells.
Fig. 5 Galr2 agonists display different Gαq-protein-dependent signaling and pErk1/2. The ability of increasing concentrations of agonists to induce a SRE-Luc activity and b total inositol phosphate production. c Representative western blot showing ligand-induced phosphorylation of Erk1/2 from wild-type (HEK293 WT), Gαq/11-, and β-arrestin1/2-knockout HEK293 cells expressing Galr2 (original blots are presented in Supplementary Figure 4). pErk1/2 and total Erk levels were determined at 5 min after stimulation of different concentrations of three ligands. Western blot band intensities corresponding to each concentration were quantified using Image studio ^TM Software. […] Data are the mean ± s.e.m. values of two independent experiments
Galr2 activation was monitored using measurement of total inositol phosphate (IP + IP2 + IP3) production in HEK293 cells expressing human Galr2. For this assay, cells were seeded in 12-well plates at a density of 2.5 × 10^5 cells per well. The next day, the cells were transiently transfected with 1 μg/well plasmid containing human Galr2, using the Lipofectamine 2000 (Invitrogen) transfection reagent. The day after transfection, the cells were incubated in M199 medium containing 1% FBS, 1% L-glutamine, 1% penicillin/streptomycin, and 1 μCi/well myo-^3H inositol for 20 h. After a 30-min incubation in buffer A (140 mM NaCl, 20 mM Hepes, 4 mM KCl, 8 mM D-glucose, 1 mM MgCl2, 1 mM CaCl2, 1 mg/ml free fatty acid bovine serum albumin, and 10 mM LiCl at pH 7.2), the cells were exposed to the agonist for 40 min at 37 °C. […] The radioactivity of the samples was measured using a TRI carb 3100TR liquid scintillation analyzer (Packard).

Galr2 [4] = test: Galr2 internalization assay based on HiBiT technology; assay type: cell-based, human; conditions: HEK293 cells; agonist 30 min; two independent experiments in triplicate
Experimental: The HiBiT protein tagging system, like NanoBiT technology, consists of two subunits: the large fragment (LgBiT) with 156 amino acids and the small fragment of Nluc (SmBiT-High-affinity) with only 11 amino acids that has a very high affinity to LgBit. To quantify Galr2 at the cell surface, cells expressing Galr2 tagged with the SmBiT-High-affinity were treated with cell-impermeable LgBiT along with the Nluc substrate furimazine. SmBiT-High-affinity-Galr2 on the cell surface binds to LgBiT which produces a luminescent signal, while SmBiT-High-affinity-Galr2 inside the cells cannot bind to LgBiT (Fig. 4a).
Fig. 4 Internalization of Galr2. a Schematic representation of the internalization assay. […] Before ligand stimulation, cells were pretreated with 30 μM Cmpd101 (a GRK2/3 inhibitor) for 30 min, 25 μM PitStop 2 (a Clathrin inhibitor) for 15 min, and 80 μM Dynasore (a Dynamin inhibitor) for 40 min. […] Remaining cell surface receptors were determined by measuring the luminescent signal produced by the binding between LgBiT and the Galr2-SmBiT-High affinity. Each data point represents mean ± s. e. m. of two independent experiments performed in triplicate
Quantification of bias between each pathway was performed using Galanin as a reference ligand. All incubations for the different signaling assays were performed in serum-free medium to prevent peptide degradation.
Internalization assays were performed using the Nano-Glo HiBiT extracellular detection system acquired from Promega Corporation (Cat. No. N2421). The day before transfection, HEK293 cells were seeded in 96-well plates at a density of 2.5 × 10^4 cells per well. The following day, cells were transfected with a mixture prepared containing 0.5 ng of SmBiT-high-affinity-Galr2 construct and 0.2 μl Lipofectamine 2000 (Invitrogen) added to each well. […] Then luminescence values were recorded immediately (Synergy 2 Multi-Mode Microplate Reader BioTek). […]

[5] = mean ± s.e.m. of three experiments in triplicate

Molecule | affinity toward Galr2 (Galr2 [1]) | affinity toward Galr3 [2] | Log(τ/KA), Total inositol phosphate (Galr2 [3]; [5]) | ΔLog(τ/KA), Total inositol phosphate (Galr2 [3]; normalized to Galanin (reference agonist), in parenthesis, mean ± s.e.m. of three experiments in triplicate) | Galr2 internalization (decrease of cell-surface luminescent signal) (Galr2 [4]) | activation of Galr2 (Galr2 [1]) | activation of Galr3 [2] | efficacy in total inositol phosphate production (Galr2 [3]; HEK293 cells transiently expressing Galr2)
Galanin [reference compound] | high affinities | low affinity | 4.20 ± 0.03 | 0.00 ± 0.02 | significantly decreased the luminescent signal in a dose-dependent manner; also recorded: efficiently induced internalization in a dose-dependent manner |  |  | 
B1 |  |  | 4.40 ± 0.03 |  | marginally induce internalization of the receptor; also recorded: Galr2 internalization was not detected; also recorded: did not detect Galr2 internalization | activates Galr2 and Galr3 with high affinities | activates Galr2 and Galr3 with high affinities | substantially higher efficacy
